The test system of assay [1] is atheromatous smooth muscle cells (ASA). Put plainly: Intracellular communication: transference of Lucifer Yellow dye after microinjection, atheromatous cells. In kind it is cell-based, human. Conditions: 0.4 µM (200 ng/ml for PCA-4230), incubated for 1 hour. The source says: (§1) Materials and Methods. Non-arteriosclerotic aorta smooth muscle cells (NASA), obtained from biopsies of organs to be used in heart transplants were used. The atheromatous smooth muscle cells (ASA) were obtained from biopsies obtained from arteriosclerotic arteries coming from aorta reconstruction. These biopsies were used as a source for cultures by explant, avoiding the use of enzymatic additives or detergents. The cells were left to grow until confluence, in M199 medium, supplemented with 5% BFS and antibiotics as in the previous example. The pureness of the cultures was determined by specific staining of the same with anti-α actin of smooth muscle cells.
(§2) Intracellular communication was studied by evaluating the transference of the fluorescent dye Lucifer Yellow from a single cell, in which it is inserted by microinjection, to the surrounding cells. The extent of this transference of dye was determined in 40 normal cells and in 100 atheromatous cells.
(§3) The same experiment was carried out with Verapamyl 0.4 µM, used as a standard drug with calcium antagonist activity and with 0.02% dimethylsulfoxide, the vehicle used in both cases.
(§4) The same study was repeated with the vehicle and with Verapamyl.

For assay [2], the system named is A10 cells. Put plainly: Inhibition of smooth muscle cell proliferation induced by bovine fetal serum (DNA synthesis by inclusion of BrdU). Conditions: for inhibition at 50 µM / inhibition at 0.5 µM / inhibition at 5 µM: Rattus norvegicus; for % LABELED CELLS (Average ± S.D.): 10% bovine fetal serum, BrdU inclusion. It counts as cell-based, rat. The protocol:
In these experiments a rat aorta smooth muscle cell line obtained from American Type Culture Collection (ATCC;A10 CRL 1476) was used. The cells were grown in a humidified atmosphere (37^º C; 95% air - 5% CO2) in Dulbecco's Modified Eagle Medium (DMEM) containing 10 % bovine fetal serum supplemented with 20 mM L-glutamine, 100 IU/ml penicillin, 100 µg/ml streptomycin and 0.25 µg/ml Amphotericin B (antibiotic-antimycotic solution, Gibco). The medium was replaced every two days.
To study the effect of PCA-4230 and of the other compounds, the DNA synthesis was measured by deterimining the inclusion of BrdU (an analogue of thymidine). The cells were isolated by trypsinization (trypsin 0.05% in EDTA 0.02%) and were seeded on glass cover-glasses in culture plates of 24 cups, at a density of 10^4 cells per cup. The cells were grown for 24 hours in DMEM with 10% BFS to allow adhesion of the cells to the slides. Afterwards, the cells were washed with serum-free DMEM containing 0.2% bovine serum albumin (BSA). They were incubated for 48 hours in the same medium to obtain quiescent cells. Afterwards, proliferation was induced by replacement of the medium by DMEM containing 10% bovine fetal serum, along with the vehicle or drugs at the suitable concentrations (0.5 to 50 µM for PCA-4230 and 50 µM for the rest of the compounds): The cells were grown in these conditions for 16 hours and, afterwards, BrdU was added and the culture was continued for two to three hours.

Assay [3] relates to smooth muscle cells. Conditions: from J. Bernhardt et al. (1993); cited from earlier work.
In assay [4] the test system is c-fos and c-jun proto-oncogenes. Put plainly: Expression of c-fos and c-jun proto-oncogenes (Northern hybridization of total RNA) in serum-stimulated cells. It counts as cell-based, rat. Conditions: 5x10^-5M; cells stimulated for 30 minutes with 10% FCS; result in words. The protocol:
The expression of the c-fos and c-jun proto-oncogenes was analyzed in cells fasted for 48h (cultured in serum-free DMEM, containing BSA 0.2%) and subsequently stimulated for 30 minutes with 10% FCS in the presence of absence of PCA-4230 (5x10^-5M). The total RNA was extracted from said cells using a previously described method (P Chomczynski and N. Sacchi (1987), Ann. Biochem. 162: 156-159).
Immediately, the extracted RNA (10 µg) was resolved by eletrophoresis in agarose gel (1.2% agarose + formaldehyde + formamide). The gel was then transferred to a nylon membrane and this was hybridized with specific probes for c-fos and c-jun (previously labeled with [^32P]-deoxy CTP). The membrane was finally exposed to a sensitive film (Kodak X-OMAT) for 8-17 hours at -70^º C. The level of expression of the oncogenes was brought back to normal by using a specific probe for β-actin.

Assay [5] relates to Non-arteriosclerotic aorta smooth muscle cells (NASA). Put plainly: Intracellular communication: transference of Lucifer Yellow dye after microinjection, normal cells. It counts as cell-based, human. Conditions: NORMAL (HEALTHY) cells, 0.4 µM, incubated for 1 hour.
From the text: as §1, §2, §3, §4

Assay [6] has as its system gap junctions. Put plainly: Freeze Fracture Electron Microscopy (FFEM) of gap junction morphology. In kind it is cell-based, human. Conditions: cells treated with PCA-4230, result in words. The text has this: Subsequently, the cells were fixed with glutaraldehyde and were studied by FFEM "Freeze Fracture Electron Microscopy" to determine the morphology of the gap junctions. The cells were frozen at -110^º C and were fractured. The breakage planes are the planes with less resistance that correspond to the surface of the inside membrane, between lipid bilayers.

The conditions of assay [7]: Phase II Clinical Trial, Internal Report; result in words; cited from earlier work.
Setting [8] is: Table Ib, 50,0 µM/L, two experiments in triplicate.
Where [9] appears, read: Table Ib, 50,0 µM/L, versus vehicle.
The mark [10] stands for this setting: A10, Table Ib, 50,0 µM/L, versus vehicle, read-out: % INHIBITIÓN.

Read-outs that look alike come from different tables or passages of the source.

As to `COc1ccc(CCN(C)CCCC(C#N)(c2ccc(OC)c(OC)c2)C(C)C)cc1OC` (stereo not drawn) [VERAPAMYL, Verapamyl, reference compound], the entries for the “N° CELLS LABELED BY INJECTION” value in assay [1] and in assay [1] (listed as Verapamyl) were 7,20 ± 0,54 and “did not show any significant effects”, respectively.

On to `CC(=O)Oc1ccccc1C(=O)O` [ASPIRIN, aspirin, reference compound], for which the inhibition at 50 µM in assay [2] (A10, read-out: % INHIBITIÓN) worked out at 25.5%. Further, in assay [2] (setting [8]), the “% LABELED CELLS (Average ± S.D.)” value is 22.2 ± 1,8%. Besides, the “% INHIBITIÓN” value in assay [2] (setting [9]) is “weak inhibitory effect”. Also, in assay [3], the “aspirin concentrations at which inhibition of the proliferation of smooth muscle cells is achieved” value is recorded as “higher than 270 µM”.

For `Clc1ccccc1CN1CCc2sccc2C1` [THICLOPYD., Thiclopydine, reference compound], in assay [2] (setting [10]), the inhibition at 50 µM turned out to be 17.1%. In addition, the “% LABELED CELLS (Average ± S.D.)” value in assay [2] (setting [8]) is reported as 24,7 ± 1,5%. Also, the “% INHIBITIÓN” value in assay [2] (setting [9]) is “weak inhibitory effect”.

As for `CCOC(=O)C1=C(C)NC(C)=C(C(=O)OCCN2C(=O)c3ccccc3S2(=O)=O)C1C` (stereo not drawn) [PCA-4230], in assay [2] (0.5 to 50 µM, result in words), the “cell proliferation induced by bovine fetal serum” value is on record as “inhibited cell proliferation induced by bovine fetal serum proportionally to the concentration”. The inhibition at 0.5 µM was determined as 26.1% in assay [2] (A10, Table Ia, 0,5 µM/L, versus vehicle, read-out: % INHIBITIÓN) and 25% in assay [2] (A10, Table Ib, 0,5 µM/L, versus vehicle, read-out: % INHIBITIÓN). Moreover, the inhibition at 5 µM in assay [2] (A10, Table Ia, 5,0 µM/L, versus vehicle, read-out: % INHIBITIÓN) turned out to be 53.2%; in assay [2] (A10, Table Ib, 5,0 µM/L, versus vehicle, read-out: % INHIBITIÓN), 57.4%. The inhibition at 50 µM is 95.1% in assay [2] (A10, Table Ia, 50,0 µM/L, versus vehicle, read-out: % INHIBITIÓN) and 87.9% in assay [2] (setting [10]). Further, the “% LABELED CELLS (Average ± S.D.)” value is 15,0 ± 2,3% in assay [2] (Table Ia, 0,5 µM/L, three experiments in triplicate); 9,5 ± 1,1% in assay [2] (Table Ia, 5,0 µM/L, three experiments in triplicate); 1,0 ± 0,6% in assay [2] (Table Ia, 50,0 µM/L, three experiments in triplicate); 22,3 ± 0,9% in assay [2] (Table Ib, 0,5 µM/L, two experiments in triplicate); 12,7 ± 1,4% in assay [2] (Table Ib, 5,0 µM/L, two experiments in triplicate); 3,6 ± 0,3% in assay [2] (setting [8]). Besides, the “transcription of the c-fos and c-jun proto-oncogenes” value in assay [4] is “suppressive effect”. Also, the “N° CELLS LABELED BY INJECTION” value in assay [1] is listed as 2.42 ± 0.34; in assay [5], 2,40 ± 0,18. Also, the “morphology, distribution and number of the gap junctions” value in assay [6] is reported as “No differences were observed”. The hypolipidemic effect result in assay [7] is reported as “moderate hypolipidemic effect”.
